Data on one molecule can be found in US11274136B2, “Acylated glucagon analogue” (Zealand Pharma A/S, priority 2015, dated 2022).

As a reminder, the clearance is the rate of elimination divided by the concentration. A high value points to efficient removal. One may read the half-life as the time in which the quantity being followed falls by half.

Data set [1] concerns the target T1, human glucagon-like peptide 1 receptor (GLP-1R) (Homo sapiens, UniProt P43220).
T1 construct: expressed in transfected cells
Kind of data set: GLP-1 receptor efficacy assay (cAMP AlphaScreen, CHO cells). Format: cell-based. Particulars: EC50[GLP-1R]/EC50[Glucagon-R], human receptors in CHO-K1. The source says: The cDNA encoding either the human glucagon receptor (Glucagon-R) (primary accession number P47871) or the human glucagon-like peptide 1 receptor (GLP-1R) (primary accession number P43220) were synthesized and cloned into a mammalian expression vector containing a Zeocin resistance marker.
The mammalian expression vectors encoding the Glucagon-R or the GLP-1-R were transfected into Chinese hamster ovary (CHO) cells by the Attractene method. Stably expressing clones were obtained by Zeocin selection (250 μg/mL) upon limited dilution of cells resistant to the selection pressure. Glucagon-R and GLP-1-R cell clones expressing were picked, propagated and tested in the Glucagon-R and GLP-1-R efficacy assays as described below. […]
CHO cells expressing the human Glucagon-R, or human GLP-1-R were seeded 24 hours prior to the assay at 5000 cells per well in 384-well microtiter plates in culture in 50 μl growth medium. […] After two hours of incubation at room temperature in the dark, the cAMP content was determined applying the AlphaScreen™ cAMP Functional Assay Kit from Perkin-Elmer according to manufacturer instructions. EC50 and relative efficacies compared to reference compounds (glucagon and GLP-1) were calculated applying computer aided curve fitting. The GLP-1/glucagon ratio is calculated as defined earlier.
(In Alpha technology, singlet oxygen from a donor bead excites a nearby acceptor bead.)

Data set [2] in a line: Pharmacokinetic parameters after intravenous administration to rats. Format: in vivo. Particulars: Han/Wistar, rat, plasma, male Wistar rats, 20 nmol/kg. As for the experimental part: Pharmacokinetic parameters of the test compounds were determined after intravenous administration to Han/Wistar rats. The acylated GLP-1 analogue semaglutide was also tested for comparison purposes.
Male Wistar rats were obtained from Charles River (Germany) weighing approximately 180 to 210 g at time of arrival at the test facility. Rats were caged in European standard rat cages type IV with light cycle of 12-hour dark and 12-hour light. During the study rats were housed in standard rat cages type III. Both diet Altromin 1324 (Altromin, Germany) and water was administered ad libitum during the whole experimental period. The animals were housed in the test facility for at least 4 days in order to assure proper acclimatization.
The compounds were first dissolved in 0.1% aqueous ammonia to a nominal concentration of 2 mg/ml, and then diluted to the desired dosing strength (10 μM) in sterile PBS containing 25 mM phosphate buffer, pH 7.4. Intravenous injections corresponding to 20 nmol/kg were given via a lateral tail vein.
Blood samples (200 μl) were collected from the periorbital plexus at time points 0.08, 0.25, 0.5, 1, 2, 4, 8, 24, 32 and 48 h post dosing into K3EDTA tubes and centrifuged for 5 minutes at 4° C. within 20 minutes of sampling. Plasma samples (>100 μl) were transferred to 96-well PCR plates, immediately frozen and kept at −20′C until analysed for plasma concentration for the respective GLP-1-glucagon compound using LC-MS/MS. Individual plasma concentration-time profiles were analysed by a non-compartmental approach using ToxKin™ version 3.2 (Unilog IT Services), and the resulting pharmacokinetic parameters were determined.

Data set [3] in a line: Oral glucose tolerance test (OGTT) in mice. Particulars: male C57BL6/J mice, 30 nmol/kg subcutaneous, blood glucose AUC 0-120 min. The class given is in vivo. On the procedure:
Effects of the test compounds on glycemic control were determined by an oral glucose tolerance test (OGTT) in 7-8 weeks old male C57BL6/J mice (obtained from Charles River Laboratories, Germany). Animals were housed in groups in individually ventilated cages (Tecniplast green line) with a 12-hour light cycle. They had ad libitum excess to a standard rodent diet (Provimi Kliba 3438) and water. The animals were housed in the test facility for at least one week prior to the OGTT. All experimental protocols concerning the use of laboratory animals were reviewed by a federal Ethics Committee and approved by governmental authorities.
The compounds were first dissolved in 0.1% aqueous ammonia to a nominal concentration of 2 mg/ml, and then diluted to the desired dosing strength in sterile PBS containing 25 mM phosphate buffer, pH 7.4. Compounds were administered in the morning by subcutaneous injection at a dose of 30 nmol/kg and a volume of 5 ml/kg. Control animals received a vehicle injection only. The GLP-1 analogue liraglutide was tested for comparison purposes. Group size was 5 animals per group.
The OGTT was performed 24 h or 48 h after compound administration. Animals were fasted for 10 h before the OGTT but still had ad libitum excess to water. After overnight fasting, a baseline blood sample (0 min) was obtained by tail bleed and blood glucose was measured with a glucometer. […]

T1 sequence (P43220 24-463): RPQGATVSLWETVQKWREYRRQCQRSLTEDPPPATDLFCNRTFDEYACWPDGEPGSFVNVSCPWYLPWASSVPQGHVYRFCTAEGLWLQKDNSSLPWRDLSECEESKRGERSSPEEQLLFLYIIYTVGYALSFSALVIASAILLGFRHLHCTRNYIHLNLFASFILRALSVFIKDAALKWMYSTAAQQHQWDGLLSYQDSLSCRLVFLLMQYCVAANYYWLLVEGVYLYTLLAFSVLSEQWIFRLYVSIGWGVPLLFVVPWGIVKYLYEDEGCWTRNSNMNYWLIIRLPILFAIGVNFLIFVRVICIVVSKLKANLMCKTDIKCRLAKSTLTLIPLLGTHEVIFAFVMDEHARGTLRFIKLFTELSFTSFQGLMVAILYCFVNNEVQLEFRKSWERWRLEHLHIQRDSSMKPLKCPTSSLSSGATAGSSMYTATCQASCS

Consider `CC[C@H](C)[C@H](NC(=O)[C@H](Cc1ccccc1)NC(=O)[C@H](CC(=O)O)NC(=O)[C@H](CCCCN)NC(=O)[C@H](C)NC(=O)[C@H](C)NC(=O)[C@H](CCCNC(=N)N)NC(=O)[C@H](CCC(=O)O)NC(=O)[C@H](CC(=O)O)NC(=O)[C@H](CC(C)C)NC(=O)[C@H](Cc1ccc(O)cc1)NC(=O)[C@H](CCCCN)NC(=O)[C@H](CO)NC(=O)[C@H](Cc1ccc(O)cc1)NC(=O)[C@H](CC(=O)O)NC(=O)[C@H](CO)NC(=O)[C@@H](NC(=O)[C@H](Cc1ccccc1)NC(=O)[C@@H](NC(=O)CNC(=O)[C@H](CCC(N)=O)NC(=O)C(C)(C)NC(=O)[C@@H](N)Cc1c[nH]cn1)[C@@H](C)O)[C@@H](C)O)C(=O)N[C@@H](CCC(=O)O)C(=O)N[C@@H](Cc1c[nH]c2ccccc12)C(=O)N[C@@H](CC(C)C)C(=O)N[C@@H](CCC(=O)O)C(=O)N[C@@H](CCCCNC(=O)CNC(=O)CNC(=O)[C@H](CO)NC(=O)CNC(=O)[C@H](CO)NC(=O)CNC(=O)CC[C@H](NC(=O)CCCCCCCCCCCCCCCCC(=O)O)C(=O)O)C(=O)N[C@@H](C)C(N)=O` [Compound 1], for which the “Ratio GLP-1/Glucagon” value in data set [1] came to 0.13. This molecule also displayed a clearance in data set [2] of 5.4 mL/h/kg. Moreover, in data set [2] (read-out: Mean Residence Time), the MRT is 19.2 h. The half-life in data set [2] (read-out: Terminal half life (converted)) was 15.2 h. For the same molecule, the “OGTT AUC 30 nmol/kg 24 h” value in data set [3] (OGTT 24 h after administration) stood at 56 % CTL. Moreover, the “OGTT AUC 30 nmol/kg 48 h” value in data set [3] (OGTT 48 h after administration) is 74 % CTL.
